Measured values taken from patent publication US6750008B1, “Methods and compositions for inhibition of membrane fusion-associated events, including HIV transmission” (priority 1999, dated 2004).
“Also recorded” adds a separate entry of the source.

How the values were obtained:
RSV = assay: Anti-RSV antiviral activity assay (syncytial formation, Hep-2 cells); format: cell-based, respiratory syncytial virus; settings: purified peptides
Description: The assay utilized herein tested the ability of the peptides to disrupt the ability of HEp2 cells acutely infected with RSV (i.e., cells which are infected with a multiplicity of infection of greater than 2) to fuse and cause syncytial formation on a monolayer of uninfected an uninfected line of Hep-2 cells. The lower the observed level of fusion, the greater the antiviral activity of the peptide was determined to be. […]
After incubation, cells in control wells were checked for fusion centers, media was removed from the wells, followed by addition, to each well, of either Crystal Violet stain or XTT. […] The number of syncytia per well were then counted, using a dissecting microscope.
With respect to XTT (2,3-bis[2-Methoxy-4-nitro-5-sulfophenyl]-2H-tetrazolium-5-carboxyanilide inner salt), 50 μl XTT (1 mg/ml in RPMI buffered with 100 mM HEPES, pH 7.2-7.4, plus 5% DMSO) were added to each well. The OD450/690 was measured (after blanking against growth medium without cells or reagents, and against reagents) according to standard procedures. […]

HIV-1LAI virus [1] = settings: FIG. 1 legend
Description: Synthetic peptides were incubated at 37° C. with either 247 TCID50 (for experiment depicted in FIG. 2), or 62 TCID50 (for experiment depicted in FIG. 3) units of HIV-1LAI virus or 25 TCID50 units of HIV-2NIHZ and CEM CD4^+ cells at peptide concentrations of 0, 0.04, 0.4, 4.0, and 40 μg/ml for 7 days. The resulting reverse transcriptase (RT) activity in counts per minute was determined using the assay described, below, in Section 6.1.5. See Reed, L. J. et al., 1938, Am. J. Hyg. 27: 493-497 for an explanation of TCID50 calculations.
The micro-reverse transcriptase (RT) assay was adapted from Goff et al. (Goff, S. et al., 1981, J. Virol. 38:239-248) and Willey et al. (Willey, R. et al., 1988, J. Virol. 62:139-147). Supernatants from virus/cell cultures are adjusted to 1% Triton-X100. A 10 μl sample of supernatant was added to 50 μl of RT cocktail in a 96-well U-bottom microtitre plate and the samples incubated at 37° C. for 90 min. The RT cocktail contained 75 mM KCl, 2 mM dithiothreitol, 5 mM MgCl2, 5 μg/ml poly A (Pharmacia, cat. No. 27-4110-01), 0.25 units/ml oligo dT (Pharmacia, cat. No. 27-7858-01), 0.05% NP40, 50 mM Tris-HCl, pH 7.8, 0.5 μM non-radioactive dTTP, and 10 μCi/ml ^32P-dTTP (Amersham, cat. No. PB.10167).
After the incubation period, 40 μl of reaction mixture was applied to a Schleicher and Schuell (S+S) NA45 membrane (or DE81 paper) saturated in 2×SSC buffer (0.3M NaCl and 0.003M sodium citrate) held in a S+S Minifold over one sheet of GB003 (S+S) filter paper, with partial vacuum applied. Each well of the minifold was washed four times with 200 μl 2×SSC, under full vacuum. The membrane was removed from the minifold and washed 2 more times in a pyrex dish with an excess of 2×SSC. Finally, the membrane was drained on absorbent paper, placed on Whatman #3 paper, covered with Saran wrap, and exposed to film overnight at −70° C.
DP178 (SEQ ID:1) was next tested for its ability to block CD-4^+ CEM cell infection by cell free HIV-1 virus. […]

[2] = target: T1, DP107-like domain of the RSV F1 protein (Human respiratory syncytial virus A, UniProt P03420); format: binding
T1 construct: made in house
Description: After incubation and washing, unbound Fab-d is removed from the plates and bound Fab-d is quantitated. A no-inhibitor control should also be conducted.
Such an assay takes advantages of accepted radioligand and receptor binding principles.
Specifically, the DNA sequence corresponding amino acid residues 142-302 of the RSV F1 protein was amplified by PCR and cloned into the Xmn I site of the expression vector pMal-p2 (New England Biolab) to give MF5.1. These amino acid residues correspond to the extracellular domain of the RSV F1 protein including its DP107 region but excluding the DP178 region.
Cell fusion assays were performed with each of the peptides as described in Section 17 above. The binding affinity of each peptide was also measured in a competitive binding assay described in Section 5.6.1 above, wherein the concentration of each peptide necessary to bind to the M5.1 fusion protein (i.e., the B50 value), and thereby disrupt binding of biotin labeled T112 (T888) to the fusion protein, was measured.

HIV-1LAI virus [3] = assay: Cell fusion assay (HIV-1 induced syncytia formation); format: cell-based
Description: The results of several such experiments are presented herein.

[4] = target: viral gp41 of HIV-1 (on virions and HIV-1 infected cells) (HIV-1) (UniProt P03377); assay: cell-based or functional assay
CEM cells = assay: Cell proliferation and toxicity assay; format: cell-based; settings: 3 days, highest concentration tested 40 μg/ml
Description: Cell proliferation and toxicity assay: Approximately 3.8×10^5 CEM cells for each peptide concentration were incubated for 3 days at 37° C. in T25 flasks. Peptides tested were DP178 (SEQ ID:1) and DP-116 (SEQ ID:9), as described in FIG. 1. Peptides were synthesized as described, above, in Section 6.1. The concentrations of each peptide used were 0, 2.5, 10, and 40 μg/ml. Cell counts were taken at incubation times of 0, 24, 48, and 72 hours.

T1 sequence (P03420 142-302): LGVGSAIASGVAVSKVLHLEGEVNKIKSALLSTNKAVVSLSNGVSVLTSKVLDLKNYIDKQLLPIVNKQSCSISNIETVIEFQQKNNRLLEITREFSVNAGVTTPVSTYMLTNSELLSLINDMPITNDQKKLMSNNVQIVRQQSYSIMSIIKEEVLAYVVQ

CC[C@H](C)[C@H](NC(=O)[C@H](Cc1ccccc1)NC(=O)[C@H](C)NC(=O)[C@H](CC(C)C)NC(=O)[C@H](CO)NC(=O)[C@H](CCC(N)=O)NC(=O)[C@H](CC(N)=O)NC(=O)[C@@H](NC(=O)[C@H](CCCCN)NC(=O)[C@H](CCC(=O)O)NC(=O)[C@H](CC(N)=O)NC(=O)[C@@H](NC(=O)[C@H](CCC(N)=O)NC(=O)[C@H](CO)NC(=O)[C@@H](NC(=O)[C@H](CO)NC(=O)[C@H](C)NC(=O)[C@H](CC(=O)O)NC(=O)[C@H](Cc1ccccc1)NC(=O)[C@H](CCC(=O)O)NC(=O)[C@H](CC(=O)O)NC(=O)[C@H](CO)NC(=O)[C@@H]1CCCN1C(=O)[C@H](Cc1ccccc1)NC(=O)[C@@H](NC(C)=O)C(C)C)[C@@H](C)CC)C(C)C)[C@@H](C)CC)C(=O)N[C@@H](CCCNC(=N)N)C(=O)N[C@@H](CCCCN)C(=O)N[C@@H](CO)C(=O)N[C@@H](CC(=O)O)C(=O)N[C@@H](CCC(=O)O)C(=O)N[C@@H](CC(C)C)C(=O)N[C@@H](CC(C)C)C(=O)N[C@@H](Cc1c[nH]cn1)C(=O)N[C@@H](CC(N)=O)C(=O)N[C@H](C(N)=O)C(C)C [T112]
anti-RSV antiviral activity (RSV): substantial antiviral activity

Ac-LQARILAVERYLKDQQQ-NH2 [DP-116, reference compound]
inhibition of HIV-1 cell free virus infection (HIV-1LAI virus [1]): negative for inhibition of HIV-1 infection

Ac-VYPSDEFDASISQVNEKINQALAYIRKADELLHNV-NH2 [T786]
binding affinity relative to T112 [2]: approximately ten-fold less | Kd ([2]; B50, competition with biotin labeled T112 (T888), read-out: binding affinity): 19 nM

DP-180: control peptide incorporating the amino acid residues of DP178 in a scrambled sequence (NNLLRAIEAQQHLLQLTVW; Core polypeptide) [reference compound]
anti-fusogenic activity (HIV-1LAI virus [3]; at 40 μg/ml): no evidence of anti-fusogenic activity

H-YTNTIYTLLEESQNQQEKNEQELLELDKWASLWNWF-OH [DP-185]
block of HIV-1-mediated syncytia formation (HIV-1LAI virus [3]): block HIV-1-mediated syncytia formation | inhibitory activity on HIV-1-induced syncytia formation, lowest concentration tested (HIV-1LAI virus [3]; FIG. 4): ≤ 312.5 ng/mL

M41 (maltose binding fusion protein of the gp41 ectodomain) (from UniProt P0AEX9 27-392; P03377 540-686)
Cell fusion (IC90) [4]: > 50000 nM | HIV infectivity (IC90) [4]: > 16000 nM

M41-P (from UniProt P03377 540-686)
Cell fusion (IC90) [4]: 83 nM | HIV infectivity (IC90) [4]: 66 nM

M41-PΔ178 (from UniProt P03377 540-642)
Cell fusion (IC90) [4]: > 50000 nM | HIV infectivity (IC90) [4]: > 8000 nM

enfuvirtide
cytotoxic effects on cells in culture (CEM cells): non-cytotoxic; also recorded: no cytotoxic effects
